The target of one assay is PI3K-γ (Homo sapiens, UniProt P48736). The assay can be described thus: PI3K-gamma fluorescence polarization assay. The note with it: read-out: IC50 PI3Kγ.
For assay [1], the system named is human prostate LNCap tumor cell line. The assay can be described thus: In vitro cell culture growth assay (MTS), LNCap. The settings on record: read-out: IC50 LNCap.
The next assay concerns the target PI3K-α (Homo sapiens, UniProt P42336). Put plainly: PI3K-alpha fluorescence polarization assay. The settings on record: read-out: IC50 PI3Kα.
The target of the next assay is Human mTOR (FLAG-TOR) (Homo sapiens, UniProt P42345). The assay can be described thus: mTOR kinase assay (DELFIA format, purified enzyme). Type of assay: biochemical. The note with it: read-out: IC50 mTOR.
The subject of assay [2] is human breast MDA-MB-361 tumor cell line. Put plainly: In vitro cell culture growth assay (MTS), MDA-MB-361. The settings on record: Homo sapiens, 72 h; MDA-MB-361 cells, MTS, three days after drug treatment; read-out: IC50 MDA-MB-361. Type of assay: cell-based.
For assay [3], the system named is human prostate PC3-mm2 tumor cell line. Put plainly: In vitro cell culture growth assay (MTS), PC3-mm2. The settings on record: Homo sapiens, PC3MM2, 72 h, PC3-mm2 cells, MTS, three days after drug treatment; read-out: IC50 PC3-mm2. Type of assay: cell-based.
Where [4] appears, read: MTS cell growth assay, three days after drug treatment.

pIC50: −log10 of the molar value. Where two headings read alike, the source gives them in different places.

Sequence of Human mTOR (FLAG-TOR) (P42345 1360-2549 limits assumed): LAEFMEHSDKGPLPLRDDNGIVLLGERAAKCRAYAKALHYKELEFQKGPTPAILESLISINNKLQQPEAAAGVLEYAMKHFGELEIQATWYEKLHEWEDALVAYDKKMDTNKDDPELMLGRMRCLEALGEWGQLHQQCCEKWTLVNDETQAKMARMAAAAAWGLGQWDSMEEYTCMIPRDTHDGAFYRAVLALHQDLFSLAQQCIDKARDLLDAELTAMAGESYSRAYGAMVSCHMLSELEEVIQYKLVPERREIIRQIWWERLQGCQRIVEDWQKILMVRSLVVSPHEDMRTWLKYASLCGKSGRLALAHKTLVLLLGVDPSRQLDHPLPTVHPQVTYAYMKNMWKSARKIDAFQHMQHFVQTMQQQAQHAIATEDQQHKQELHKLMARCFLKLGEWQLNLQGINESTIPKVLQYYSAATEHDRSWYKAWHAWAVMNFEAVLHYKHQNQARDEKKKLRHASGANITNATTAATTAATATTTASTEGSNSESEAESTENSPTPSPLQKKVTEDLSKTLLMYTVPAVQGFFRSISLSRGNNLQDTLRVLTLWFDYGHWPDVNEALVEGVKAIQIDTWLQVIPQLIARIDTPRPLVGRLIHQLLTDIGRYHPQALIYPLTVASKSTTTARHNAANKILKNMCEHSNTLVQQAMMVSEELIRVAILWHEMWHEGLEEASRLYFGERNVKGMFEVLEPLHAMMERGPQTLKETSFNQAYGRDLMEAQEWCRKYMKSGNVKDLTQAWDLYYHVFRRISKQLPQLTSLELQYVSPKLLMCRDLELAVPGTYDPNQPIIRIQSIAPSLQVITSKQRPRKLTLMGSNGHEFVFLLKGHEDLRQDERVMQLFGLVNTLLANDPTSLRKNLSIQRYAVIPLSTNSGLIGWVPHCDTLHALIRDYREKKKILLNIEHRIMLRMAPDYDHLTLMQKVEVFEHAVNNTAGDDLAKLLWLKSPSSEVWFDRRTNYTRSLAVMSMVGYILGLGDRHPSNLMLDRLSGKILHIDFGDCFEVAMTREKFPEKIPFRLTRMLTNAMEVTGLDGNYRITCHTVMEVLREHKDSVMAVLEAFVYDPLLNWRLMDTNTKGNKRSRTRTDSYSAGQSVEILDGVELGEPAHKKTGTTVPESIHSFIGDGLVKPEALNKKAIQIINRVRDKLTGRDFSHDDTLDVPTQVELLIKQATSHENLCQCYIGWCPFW
Sequence of PI3K-γ (P48736 whole entry, species assumed): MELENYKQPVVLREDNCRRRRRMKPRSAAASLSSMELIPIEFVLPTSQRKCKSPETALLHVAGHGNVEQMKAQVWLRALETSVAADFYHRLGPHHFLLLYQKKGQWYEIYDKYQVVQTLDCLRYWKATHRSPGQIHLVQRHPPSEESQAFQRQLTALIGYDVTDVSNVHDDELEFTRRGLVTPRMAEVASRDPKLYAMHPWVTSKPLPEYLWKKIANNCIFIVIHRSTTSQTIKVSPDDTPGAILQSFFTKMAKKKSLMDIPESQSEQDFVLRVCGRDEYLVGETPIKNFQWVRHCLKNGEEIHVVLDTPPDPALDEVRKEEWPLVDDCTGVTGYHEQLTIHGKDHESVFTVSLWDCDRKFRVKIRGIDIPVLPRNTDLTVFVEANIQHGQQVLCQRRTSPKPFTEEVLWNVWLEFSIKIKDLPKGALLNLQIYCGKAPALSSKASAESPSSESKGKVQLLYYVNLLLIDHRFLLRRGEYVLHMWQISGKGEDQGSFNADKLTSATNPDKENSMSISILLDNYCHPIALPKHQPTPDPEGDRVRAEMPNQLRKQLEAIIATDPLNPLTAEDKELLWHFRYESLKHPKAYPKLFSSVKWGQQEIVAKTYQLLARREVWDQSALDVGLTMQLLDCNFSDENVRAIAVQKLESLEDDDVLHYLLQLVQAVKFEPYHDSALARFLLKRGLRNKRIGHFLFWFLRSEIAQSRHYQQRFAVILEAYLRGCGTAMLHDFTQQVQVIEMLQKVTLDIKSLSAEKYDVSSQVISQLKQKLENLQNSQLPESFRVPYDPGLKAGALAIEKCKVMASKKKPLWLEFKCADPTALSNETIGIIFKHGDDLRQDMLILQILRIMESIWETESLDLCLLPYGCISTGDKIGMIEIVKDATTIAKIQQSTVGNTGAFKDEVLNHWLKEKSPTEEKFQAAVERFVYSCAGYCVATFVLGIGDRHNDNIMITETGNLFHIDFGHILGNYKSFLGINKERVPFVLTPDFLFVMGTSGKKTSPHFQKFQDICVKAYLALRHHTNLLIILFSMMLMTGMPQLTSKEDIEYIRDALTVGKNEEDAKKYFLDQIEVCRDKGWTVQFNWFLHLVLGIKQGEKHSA
Sequence of PI3K-α (P42336 whole entry, species assumed): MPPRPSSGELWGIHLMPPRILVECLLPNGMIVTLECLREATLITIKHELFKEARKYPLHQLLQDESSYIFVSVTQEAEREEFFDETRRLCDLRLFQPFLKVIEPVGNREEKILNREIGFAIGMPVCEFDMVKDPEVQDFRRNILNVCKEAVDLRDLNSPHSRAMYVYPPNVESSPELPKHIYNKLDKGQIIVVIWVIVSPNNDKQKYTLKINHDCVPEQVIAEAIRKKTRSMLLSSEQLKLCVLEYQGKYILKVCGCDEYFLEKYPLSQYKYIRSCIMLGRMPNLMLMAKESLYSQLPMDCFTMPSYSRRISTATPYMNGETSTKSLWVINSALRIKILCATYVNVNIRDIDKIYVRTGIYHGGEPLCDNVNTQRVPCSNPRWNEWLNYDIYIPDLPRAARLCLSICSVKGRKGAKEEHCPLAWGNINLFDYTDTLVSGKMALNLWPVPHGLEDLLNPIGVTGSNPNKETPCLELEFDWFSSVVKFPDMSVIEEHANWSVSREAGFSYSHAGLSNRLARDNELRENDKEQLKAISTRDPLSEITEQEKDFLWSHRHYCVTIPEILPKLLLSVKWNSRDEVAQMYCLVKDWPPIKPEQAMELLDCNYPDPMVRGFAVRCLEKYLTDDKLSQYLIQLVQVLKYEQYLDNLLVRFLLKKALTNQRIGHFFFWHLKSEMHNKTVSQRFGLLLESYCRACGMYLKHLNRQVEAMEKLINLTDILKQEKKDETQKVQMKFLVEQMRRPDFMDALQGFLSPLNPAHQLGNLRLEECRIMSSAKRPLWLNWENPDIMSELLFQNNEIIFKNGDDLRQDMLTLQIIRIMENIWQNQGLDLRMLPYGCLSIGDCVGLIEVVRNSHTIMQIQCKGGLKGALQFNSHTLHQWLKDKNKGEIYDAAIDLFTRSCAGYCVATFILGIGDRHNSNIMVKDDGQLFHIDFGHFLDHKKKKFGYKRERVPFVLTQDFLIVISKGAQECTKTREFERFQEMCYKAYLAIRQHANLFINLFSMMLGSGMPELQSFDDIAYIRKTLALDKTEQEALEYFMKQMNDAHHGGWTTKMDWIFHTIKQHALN
Sequence of PI3K-α (P27986 whole entry partner, species assumed): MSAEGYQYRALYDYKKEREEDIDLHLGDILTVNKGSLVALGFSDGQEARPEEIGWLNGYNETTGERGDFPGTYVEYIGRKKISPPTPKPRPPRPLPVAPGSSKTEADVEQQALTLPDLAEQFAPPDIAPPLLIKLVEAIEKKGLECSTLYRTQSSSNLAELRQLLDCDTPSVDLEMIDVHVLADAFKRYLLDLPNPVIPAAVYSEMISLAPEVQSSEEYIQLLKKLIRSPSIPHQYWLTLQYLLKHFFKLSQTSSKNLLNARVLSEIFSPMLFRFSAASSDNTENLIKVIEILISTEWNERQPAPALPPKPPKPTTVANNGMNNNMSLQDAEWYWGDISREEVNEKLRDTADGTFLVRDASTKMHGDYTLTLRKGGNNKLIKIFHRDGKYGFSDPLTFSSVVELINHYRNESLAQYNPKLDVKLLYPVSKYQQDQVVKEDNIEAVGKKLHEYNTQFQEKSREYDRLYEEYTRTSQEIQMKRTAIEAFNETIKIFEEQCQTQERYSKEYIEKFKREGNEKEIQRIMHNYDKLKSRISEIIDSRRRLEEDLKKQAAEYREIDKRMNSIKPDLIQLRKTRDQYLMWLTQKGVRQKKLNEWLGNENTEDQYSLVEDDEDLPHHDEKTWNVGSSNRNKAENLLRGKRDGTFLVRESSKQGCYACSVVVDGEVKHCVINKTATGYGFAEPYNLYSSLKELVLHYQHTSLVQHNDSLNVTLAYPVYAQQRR

As for “1-(4-{4-[(1-methylethyl)amino]-6-(8-oxa-3-azabicyclo[3.2.1]oct-3-yl)-1,3,5-triazin-2-yl}phenyl)-3-[6-(4-methylpiperazin-1-yl)pyridin-3-yl]urea [Example 216]”, the negative logarithm of the IC50 (pIC50) on PI3K-γ was 5.15; in assay [1] (setting [4]), 7.30; on PI3K-α, 6.28.

Take `O=C(Nc1ccncc1)Nc1ccc(-c2nc(N3CCN(C(=O)c4ccncc4)CC3)nc(N3CC4CCC(C3)O4)n2)cc1` [Example 113, 1-{4-[4-(4-isonicotinoylpiperazin-1-yl)-6-(8-oxa-3-azabicyclo[3.2.1]oct-3-yl)-1,3,5-triazin-2-yl]phenyl}-3-pyridin-4-ylurea]: the pIC50 was 8.43 on Human mTOR (FLAG-TOR) and 6.92 in assay [1] (Homo sapiens, LNCaP, 72 h).

In the case of `FC(F)c1nc2ccccc2n1-c1nc(N2CC3CCC(C2)O3)nc(N2CC3CCC(C2)O3)n1` [Example 138, 2-(difluoromethyl)-1-(4,6-di-8-oxa-3-azabicyclo[3.2.1]oct-3-yl-1,3,5-triazin-2-yl)-1H-benzimidazole], the negative logarithm of the IC50 (pIC50) on Human mTOR (FLAG-TOR) is 7.36; in assay [1] (Homo sapiens, LNCaP, 72 h), 6.17.

Consider `FC(F)c1nc2ccccc2n1-c1nc(N2CCOCC2)nc(N2CC3CCC(C2)O3)n1` [Example 139, 2-(difluoromethyl)-1-[4-morpholin-4-yl-6-(8-oxa-3-azabicyclo[3.2.1]oct-3-yl)-1,3,5-triazin-2-yl]-1H-benzimidazole], for which the pIC50 is 7.13 on Human mTOR (FLAG-TOR) and 6.74 in assay [1] (Homo sapiens, LNCaP, 72 h).

For `O=C(Nc1ccncc1)Nc1ccc(-c2nc(OCCN3CCCCC3)nc(N3CC4CCC(C3)O4)n2)cc1` [Example 144, 1-{4-[4-(8-oxa-3-azabicyclo[3.2.1]oct-3-yl)-6-(2-piperidin-1-ylethoxy)-1,3,5-triazin-2-yl]phenyl}-3-pyridin-4-ylurea], the pIC50 in assay [1] (Homo sapiens, LNCaP, 72 h) was 5.82.

With `CCN(CC)c1nc(-c2ccc(NC(=O)Nc3cccnc3)cc2)nc(N2CC3CCC(C2)O3)n1` [Example 194, 1-{4-[4-(diethylamino)-6-(8-oxa-3-azabicyclo[3.2.1]oct-3-yl)-1,3,5-triazin-2-yl]phenyl}-3-pyridin-3-ylurea], the negative logarithm of the IC50 (pIC50) on Human mTOR (FLAG-TOR) is 7.57; in assay [1] (Homo sapiens, LNCaP, 72 h), 6.22.

As to `CCN(C)c1nc(-c2ccc(NC(=O)Nc3cccnc3)cc2)nc(N2CC3CCC(C2)O3)n1` [Example 202, 1-(4-{4-[ethyl(methyl)amino]-6-(8-oxa-3-azabicyclo[3.2.1]oct-3-yl)-1,3,5-triazin-2-yl}phenyl)-3-pyridin-3-ylurea], the pIC50 at Human mTOR (FLAG-TOR) is 8.26; in assay [1] (Homo sapiens, LNCaP, 72 h) it was 6.15.

`CCC(C)Nc1nc(-c2ccc(NC(=O)Nc3cccnc3)cc2)nc(N2CC3CCC(C2)O3)n1` (stereo not shown) [Example 203, 1-{4-[4-(sec-butylamino)-6-(8-oxa-3-azabicyclo[3.2.1]oct-3-yl)-1,3,5-triazin-2-yl]phenyl}-3-pyridin-3-ylurea]: the negative-log IC50 (pIC50) on Human mTOR (FLAG-TOR) is 9.00; in assay [1] (Homo sapiens, LNCaP, 72 h) it was 7.11.

Take `CNC(=O)Nc1ccc(-c2nc(N3CC4CCC(C3)O4)nc(N3CC4CNCC(C3)O4)n2)cc1` [Example 234, 1-methyl-3-{4-[4-(8-oxa-3-azabicyclo[3.2.1]oct-3-yl)-6-(9-oxa-3,7-diazabicyclo[3.3.1]non-3-yl)-1,3,5-triazin-2-yl]phenyl}urea]: the pIC50 is 5.02 at PI3K-γ; 5.00 in assay [1] (Homo sapiens, LNCaP, 72 h); 5.34 at PI3K-α.

As for `O=C(Nc1ccc(-c2nc(N3CC4CCC(C3)O4)nc(N3CC4CNCC(C3)O4)n2)cc1)Nc1cccnc1` [Example 235, 1-{4-[4-(8-oxa-3-azabicyclo[3.2.1]oct-3-yl)-6-(9-oxa-3,7-diazabicyclo[3.3.1]non-3-yl)-1,3,5-triazin-2-yl]phenyl}-3-pyridin-3-ylurea], the pIC50 at PI3K-γ was 5.39; in assay [1] (Homo sapiens, LNCaP, 72 h), 5.10; on PI3K-α, 5.49.

`O=C(Nc1ccc(-c2nc(N3C4CCC3COC4)nc(N3C4CCC3COC4)n2)cc1)N1CCNCC1` [Example 286, N-[4-(4,6-di-3-oxa-8-azabicyclo[3.2.1]oct-8-yl-1,3,5-triazin-2-yl)phenyl]piperazine-1-carboxamide]: the pIC50 in assay [1] (Homo sapiens, LNCaP, 72 h) is 4.49; at PI3K-α it was 5.38.

For the compound `CN1CCN(c2ccc(NC(=O)Nc3ccc(-c4nc(N5C[C@H]6C[C@@H]5CO6)nc(N5C[C@H]6C[C@@H]5CO6)n4)cc3)cc2)CC1` [Example 314, 1-{4-[4,6-di-(1R,4R)-2-oxa-5-azabicyclo[2.2.1]hept-5-yl-1,3,5-triazin-2-yl]phenyl}-3-[4-(4-methylpiperazin-1-yl)phenyl]urea], the values for the pIC50 (on PI3K-γ; in assay [1] (setting [4]); at PI3K-α) were 5.00, 6.26 and 5.74, respectively.

As to `CNC(=O)Nc1ccc(-c2nc(Nc3ccc(N4CCN(C)CC4)cc3)nc(N3CC4CCC(C3)O4)n2)cc1` [Example 317, 1-methyl-3-{4-[4-{[4-(4-methylpiperazin-1-yl)phenyl]amino}-6-(8-oxa-3-azabicyclo[3.2.1]oct-3-yl)-1,3,5-triazin-2-yl]phenyl}urea], the negative-log IC50 (pIC50) was 5.17 at PI3K-γ; 6.92 in assay [1] (Homo sapiens, LNCaP, 72 h); 6.67 at PI3K-α.

Consider `CN1CCN(c2ccc(Nc3nc(-c4ccc(NC(=O)Nc5ccc(C(N)=O)cc5)cc4)nc(N4CC5CCC(C4)O5)n3)cc2)CC1` [Example 318, 4-[({4-[4-{[4-(4-methylpiperazin-1-yl)phenyl]amino}-6-(8-oxa-3-azabicyclo[3.2.1]oct-3-yl)-1,3,5-triazin-2-yl]phenyl}carbamoyl)amino]benzamide], for which the negative-log IC50 (pIC50) at PI3K-γ is 6.17; on PI3K-γ (listed as 334) it was 6.17; in assay [1] (Homo sapiens, LNCaP, 72 h) it was 6.00; on PI3K-α it was 7.81; at PI3K-α (listed as 334), 7.80.

As for `O=C(Nc1ccncc1)Nc1ccc(-c2nc(N3C4CCC3COC4)nc(N3[C@H](CO)CC[C@@H]3CO)n2)cc1` [Example 347, 1-(4-{4-[(2R,5S)-2,5-bis(hydroxymethyl)pyrrolidin-1-yl]-6-(3-oxa-8-azabicyclo[3.2.1]oct-8-yl)-1,3,5-triazin-2-yl}phenyl)-3-pyridin-4-ylurea], the negative-log IC50 (pIC50) is 5.07 on PI3K-γ; 8.05 in assay [1] (Homo sapiens, LNCaP, 72 h); 6.10 on PI3K-α.

`CC(C)N1CCN(c2ccc(NC(=O)Nc3ccc(-c4nc(C5CCOCC5)nc(N5C6CCC5COC6)n4)cc3)cc2)CC1` [Example 435, 1-(4-(4-(3-oxa-8-azabicyclo[3.2.1]octan-8-yl)-6-(tetrahydro-2H-pyran-4-yl)-1,3,5-triazin-2-yl)phenyl)-3-(4-(4-isopropylpiperazin-1-yl)phenyl)urea]: the negative logarithm of the IC50 (pIC50) on PI3K-γ is 5.34; in assay [1] (Homo sapiens, LNCaP, 72 h), 8.40.

As to `CC(C)N1CCN(C(=O)c2ccc(NC(=O)Nc3ccc(-c4nc(C5CCOCC5)nc(N5C6CCC5COC6)n4)cc3)cc2)CC1` [Example 439, 1-(4-(4-(3-oxa-8-azabicyclo[3.2.1]octan-8-yl)-6-(tetrahydro-2H-pyran-4-yl)-1,3,5-triazin-2-yl)phenyl)-3-(4-(4-isopropylpiperazine-1-carbonyl)phenyl)urea], the negative-log IC50 (pIC50) in assay [1] (Homo sapiens, LNCaP, 72 h) is 9.00.

As to `CN(C)CCNC(=O)c1ccc(NC(=O)Nc2ccc(-c3nc(N4CCOCC4)nc(N4CC5CCC4CO5)n3)cc2)cc1` (stereo not shown) [Example 815, N-[2-(dimethylamino)ethyl]-4-[({4-[4-morpholin-4-yl-6-(2-oxa-5-azabicyclo[2.2.2]oct-5-yl)-1,3,5-triazin-2-yl]phenyl}carbamoyl)amino]benzamide], the negative logarithm of the IC50 (pIC50) is 7.62 on PI3K-γ; 9.12 at Human mTOR (FLAG-TOR); 8.52 in assay [2]; 8.72 at PI3K-α; 7.62 in assay [3].

Regarding `CN(C)CCN(C)C(=O)c1ccc(NC(=O)Nc2ccc(-c3nc(N4CCOCC4)nc(N4CC5CCC4CO5)n3)cc2)cc1` (stereo not shown) [Example 816, N-[2-(dimethylamino)ethyl]-N-methyl-4-[({4-[4-morpholin-4-yl-6-(2-oxa-5-azabicyclo[2.2.2]oct-5-yl)-1,3,5-triazin-2-yl]phenyl}carbamoyl)amino]benzamide], the pIC50 at PI3K-γ is 7.59; at Human mTOR (FLAG-TOR), 8.97; in assay [2], 8.70; at PI3K-α it was 8.62; in assay [3], 7.96.

As for `O=C(Nc1ccncc1)Nc1ccc(-c2nc(N3CCOCC3)nc(N3C4COCC3[C@@H](O)C4)n2)cc1` (stereo partly drawn) [Example 818, 1-(4-{4-[(6S)-6-hydroxy-3-oxa-8-azabicyclo[3.2.1]oct-8-yl]-6-morpholin-4-yl-1,3,5-triazin-2-yl}phenyl)-3-pyridin-4-ylurea], the pIC50 is 6.73 at PI3K-γ; 8.70 at Human mTOR (FLAG-TOR); 6.89 in assay [2]; 7.42 on PI3K-α; 6.63 in assay [3].

On to `O=C(Nc1ccncc1)Nc1ccc(-c2nc(N3CCOCC3)nc(N3C4COCC3C(OCc3ccccc3)C4)n2)cc1` (stereo not shown) [Example 819, 1-(4-{4-[6-(benzyloxy)-3-oxa-8-azabicyclo[3.2.1]oct-8-yl]-6-morpholin-4-yl-1,3,5-triazin-2-yl}phenyl)-3-pyridin-4-ylurea], for which the negative-log IC50 (pIC50) at PI3K-γ is 6.45; at Human mTOR (FLAG-TOR), 7.77; in assay [2], 6.35; on PI3K-α, 7.36; in assay [3], 6.11.

As to `CN1CCN(c2ccc(NC(=O)Nc3ccc(-c4nc(N5C6COCC5COC6)nc(N5C6COCC5COC6)n4)cc3)cc2)CC1` [Example 823, 1-[4-(4,6-di-3,7-dioxa-9-azabicyclo[3.3.1]non-9-yl-1,3,5-triazin-2-yl)phenyl]-3-[4-(4-methylpiperazin-1-yl)phenyl]urea], the negative-log IC50 (pIC50) at PI3K-γ is 5.55; in assay [1] (Homo sapiens, LNCaP, 72 h), 7.26; on PI3K-α, 6.18.

(Values after patent US20090304692A1, “TRIAZINE COMPOUNDS AS PI3 KINASE AND MTOR INHIBITORS” (Wyeth, priority 2008, published 2009).)
